{
  "source": "paper PMC3183052",
  "about": "“Immunoprotectivity of HLA-A2 CTL Peptides Derived from Respiratory Syncytial Virus Fusion Protein in HLA-A2 Transgenic Mouse” (PLoS ONE, 2011)",
  "key": {"HLA-A*0201": {"biological_target": "T1, HLA-A*0201 (Homo sapiens, UniProt P04439, D140Y/D185E/D98H/E176V/E277Q/G131W/G231S/I119V/I121R/I166T/I218V/L300P/L318F/N151K/N90K/P208A/P217A/Q86G/Q94H/R138H/R169H/T345S)", "T1 construct": "Human T2 cells (purchased from the American Type Culture Collection, ATCC) (ATCC No. CRL-1992) expressing the HLA-A*0201 gene; endogenous in cells; host or cells: human T2 cells (ATCC CRL-1992)", "experiment": "T2 cell-stabilization assay (T2-binding)", "conditions": "T2 cells 5×10^5, peptide 50 µg/mL + β2-microglobulin 5 µg/mL, 28°C 16–18 h, then brefeldin A 10 µg/mL 37°C 3 h; FITC anti-HLA-A2, flow cytometry; MFI relative to negative control HCV C55-74 (set as 1)", "in_short": "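T2 cells were pulsed with 9-mer peptides (50 µg/mL) plus β2-microglobulin (5 µg/mL) at 28°C for 16–18 hours, then brefeldin A (10 µg/mL) at 37°C for 3 hours. Surface HLA-A2 was stained with FITC anti-HLA-A2 and read by flow cytometry. Binding is MFI relative to T2 cells loaded with HCV peptide C55-74 (MFI = 1).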"}, "lung eosinophils": {"test_system": "lung eosinophils", "experiment": "Eosinophil infiltration into the lungs (anti-MBP immunohistochemistry)", "type": "in vivo, HLA-A*0201 transgenic C57BL/6 mice", "conditions": "day 4 post RSV challenge; anti-MBP staining, 20 fields at 200×; six mice per group", "from_the_text": "Whole lungs were excised from the mice, fixed in 10% formalin (Sigma-Aldrich) solution overnight and embedded in paraffin (Thermo Fisher Scientific) for sectioning. The sections were stained with rat monoclonal anti-major basic protein (MBP) antibody (1∶500 dilution, gifted from Dr. James J. Lee, Mayo Clinic, AZ, USA) followed by the appropriate secondary antibodies. Twenty-bright field microscopy pictures (Nikon DXM1200 CCD digital camera attached with ACT-1 imaging capture software) from each stained section were taken at 200× magnifications and the number of eosinophils was counted. The mean of eosinophil count from each section was calculated.\nFigure 6 Eosinophil infiltration into the lungs of peptide-immunized transgenic mice upon RSV challenge. Immunohistochemical analysis of lung sections with anti-major basic protein antibody specific for eosinophils followed by the HRP-conjugated anti-rat antibody was performed. (A) Pictures from the section of normal mouse lung (a), or vehicle- (b), peptide 3- (c), 13- (d), 14- (e) and 23- (f) immunized mouse lung section. (B) Quantitative representation of eosinophil count per section of peptide- or vehicle-immunized HLA-transgenic mice at day 4 post RSV challenge. Twenty bright field pictures from each lung mesenchymal region were examined and the number of eosinophils was counted under 200× magnification. […]"}},
  "data": [
    {"sequence": "YMLTNSELL [peptide 14, HLA-A*0201-restricted 9-mer synthetic peptide from F protein of RSV-B1 strain]", "values": [
      {"measurement": "T2-binding Ratio of MFI", "setting": "HLA-A*0201", "value": 1.71},
      {"measurement": "eosinophil numbers in the lungs vs vehicle-immunized mice", "setting": "lung eosinophils", "value": "comparable eosinophil numbers"}
    ]}
  ]
}
